Measured values from ChEMBL document CHEMBL5233288, “Ginkgo Biflavones Cause p53 Wild-Type Dependent Cell Death in a Transcription-Independent Manner of p53” (J Nat Prod, 2023).
Active and inactive are the calls of the source. The calls are words filed in the database; no cut-off is given here.

Columns and labels:
[1] = tested on: HCT-116; test: Induction of ferroptosis in human HCT-116 cells assessed as reduction in GSH content at 20 uM incubated for 24 hrs; type: functional, cell-based
[2] = tested on: LoVo; test: Cytotoxicity against human LoVo cells expressing wild type p53 assessed as induction of cell death at 20 uM incubated for 72 hrs by resazurin based analysis; type: functional
[3] = tested on: HCT-116; test: Induction of cell cycle arrest in human HCT-116 cells expressing wild type p53 assessed as accumulation of cells at G1 phase at 20 uM incubated for 24 hrs by PI staining based flow cytometry (reference value: 62.5 to 66.7%); type: functional
[4] = tested on: HCT-116; test: Upregulation of p53 protein expression in human HCT-116 cells at 10 uM incubated for 24 hrs by western blot analysis; type: functional, cell-based
[5] = tested on: HCT-116; test: Induction of apoptosis in human HCT-116 cells expressing wild type p53 assessed as viable cells at 20 uM incubated for 48 hrs by Annexin V-FITC/PI staining based flow cytometry (reference value: 82.2%); type: functional; conditions: read-out: Activity
[6] = target: Cellular tumor antigen p53 (Homo sapiens) (UniProt P04637); test: Inhibition of p53 transcriptional activity in human HCT-116 cells assessed as inhibition of protein binding to p21 DNA promoter region at 20 uM incubated for 24 hrs by ChIP analysis; type: cell-based
Chain of Cellular tumor antigen p53 (Homo sapiens) (P04637 whole entry, looked up): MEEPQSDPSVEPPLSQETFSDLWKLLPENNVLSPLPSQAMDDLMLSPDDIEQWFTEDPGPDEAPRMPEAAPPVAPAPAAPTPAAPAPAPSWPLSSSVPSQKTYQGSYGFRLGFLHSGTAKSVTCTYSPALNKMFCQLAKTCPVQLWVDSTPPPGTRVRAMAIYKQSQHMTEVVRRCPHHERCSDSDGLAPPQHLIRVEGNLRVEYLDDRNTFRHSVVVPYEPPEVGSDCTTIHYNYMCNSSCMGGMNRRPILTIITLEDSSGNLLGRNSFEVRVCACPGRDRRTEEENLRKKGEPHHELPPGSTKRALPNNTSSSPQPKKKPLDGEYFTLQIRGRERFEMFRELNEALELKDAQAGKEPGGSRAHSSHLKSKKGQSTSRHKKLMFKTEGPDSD

[7] = target: Cellular tumor antigen p53 (Homo sapiens) (UniProt P04637); test: Inhibition of p53 DNA binding activity in human HCT-116 cells assessed as reduction in DNA-protein complex formation at 20 uM incubated for 24 hrs by electrophoretic mobility shift analysis; type: cell-based
[8] = tested on: HCT-116; test: Induction of cell cycle arrest in human HCT-116 cells expressing wild type p53 assessed as accumulation of cells at S phase at 10 uM incubated for 24 hrs by PI staining based flow cytometry (reference value: 0.52 to 3.83%); type: functional
[9] = tested on: SW-620; test: Cytotoxicity against human SW620 cells expressing p53 mutant assessed as induction of cell death at 20 uM incubated for 72 hrs by resazurin based analysis; type: functional
[10] = tested on: HCT-116; test: Downregulation of MDM2 protein expression in human HCT-116 cells at 10 uM incubated for 24 hrs by western blot analysis; type: functional, cell-based
[11] = tested on: HCT-116; test: Upregulation of BAX protein expression in human HCT-116 cells at 20 uM incubated for 24 hrs by western blot analysis; type: functional, cell-based
[12] = tested on: HCT-116; test: Induction of apoptosis in human HCT-116 cells expressing wild type p53 assessed as viable cells at 10 uM incubated for 48 hrs by Annexin V-FITC/PI staining based flow cytometry (reference value: 82%); type: functional; conditions: read-out: Activity
[13] = tested on: HCT-116; test: Cytotoxicity against human HCT-116 cells assessed as reduction in cell viability at 10 uM incubated for 72 hrs in presence of apoptosis inhibitor, Z-VAD-FMK by resazurin-based analysis; type: functional
[14] = tested on: HCT-116; test: Cytotoxicity against human HCT-116 cells expressing wild type p53 assessed as induction of cell death at 20 uM incubated for 72 hrs by resazurin based analysis; type: functional
[15] = tested on: HCT-116; test: Induction of apoptosis in human HCT-116 cells expressing wild type p53 assessed as late apoptotic cells at 10 uM incubated for 48 hrs by Annexin V-FITC/PI staining based flow cytometry (reference value: 5.06%); type: functional
[16] = tested on: HCT-116; test: Induction of cell cycle arrest in human HCT-116 cells expressing wild type p53 assessed as accumulation of cells at G2 phase at 5 uM incubated for 24 hrs by PI staining based flow cytometry (reference value: 30.7 to 31.5%); type: functional
[17] = tested on: HCT-116; test: Induction of apoptosis in human HCT-116 cells expressing wild type p53 assessed as necrotic cells at 20 uM incubated for 48 hrs by Annexin V-FITC/PI staining based flow cytometry (reference value: 0.44%); type: functional
[18] = tested on: HCT-116; test: Upregulation of phosphorylated p53 expression in human HCT-116 cells expressing wild type p53 at 20 uM incubated for 24 hrs by western blot analysis; type: functional, cell-based
[19] = tested on: HCT-116; test: Cytotoxicity against human HCT-116 cells assessed as reduction in cell viability at 10 uM incubated for 72 hrs in presence of ferroptosis inhibitor, ferrostatin-1 by resazurin-based analysis; type: functional
[20] = tested on: HCT-116; test: Induction of apoptosis in human HCT-116 cells expressing wild type p53 assessed as early apoptotic cells at 20 uM incubated for 48 hrs by Annexin V-FITC/PI staining based flow cytometry (reference value: 12%); type: functional
[21] = tested on: HCT-116; test: Induction of apoptosis in human HCT-116 cells expressing wild type p53 assessed as early apoptotic cells at 10 uM incubated for 48 hrs by Annexin V-FITC/PI staining based flow cytometry (reference value: 12.5%); type: functional
[22] = tested on: HT-29; test: Cytotoxicity against human HT-29 cells expressing p53 mutant assessed as induction of cell death at 20 uM incubated for 72 hrs by resazurin based analysis; type: functional
[23] = tested on: HCT-116; test: Upregulation of acetylated p53 protein expression in human HCT-116 cells expressing wild type p53 at 20 uM incubated for 24 hrs by western blot analysis; type: functional, cell-based
[24] = tested on: HCT-116; test: Induction of cell cycle arrest in human HCT-116 cells expressing wild type p53 assessed as accumulation of cells at G2 phase at 20 uM incubated for 24 hrs by PI staining based flow cytometry (reference value: 30.7 to 31.5%); type: functional
[25] = tested on: HCT-116; test: Upregulation of p53 protein expression in human HCT-116 cells expressing wild type p53 incubated for 24 hrs by western blot analysis; type: functional, cell-based; conditions: dose 2.5-20 µM
[26] = tested on: HCT-116; test: Upregulation of p53 protein expression in human HCT-116 cells at 10 uM incubated for 24 hrs in presence of 10 uM 5-FU by western blot analysis; type: functional, cell-based
[27] = tested on: HCT-116; test: Increase in mitochondrial complex III activity in human HCT-116 cells at 20 uM incubated for 24 hrs; type: functional, cell-based
[28] = tested on: HCT-116; test: Induction of cell cycle arrest in human HCT-116 cells expressing wild type p53 assessed as accumulation of cells at G2 phase at 10 uM incubated for 24 hrs by PI staining based flow cytometry (reference value: 30.7 to 31.5%); type: functional
[29] = tested on: HCT-116; test: Potentiation of 5-FU-induced cytotoxicity in human HCT-116 cells assessed as reduction in cell viability at 10 uM incubated for 24 hrs in presence of 10 uM 5-FU by resazurin based analysis; type: functional
[30] = tested on: HCT-116; test: Induction of mitochondrial membrane potential depolarization in human HCT-116 cells assessed as reduction in mitochondrial membrane potential at 20 uM incubated for 24 hrs by JC-1 staining based fluorescence analysis; type: functional, cell-based
[31] = tested on: HCT-116; test: Induction of apoptosis in human HCT-116 cells expressing wild type p53 assessed as necrotic cells at 10 uM incubated for 48 hrs by Annexin V-FITC/PI staining based flow cytometry (reference value: 0.44%); type: functional
[32] = tested on: HCT-116; test: Induction of cell cycle arrest in human HCT-116 cells expressing wild type p53 assessed as accumulation of cells at G1 phase at 5 uM incubated for 24 hrs by PI staining based flow cytometry (reference value: 62.5 to 66.7%); type: functional
[33] = tested on: HCT-116; test: Downregulation of MDM2 protein expression in human HCT-116 cells at 10 uM incubated for 24 hrs in presence of 10 uM 5-FU by western blot analysis; type: functional, cell-based
[34] = tested on: HCT-116; test: Induction of cell cycle arrest in human HCT-116 cells expressing wild type p53 assessed as accumulation of cells at G1 phase at 10 uM incubated for 24 hrs by PI staining based flow cytometry (reference value: 62.5 to 66.7%); type: functional

Compound: COc1ccc(-c2cc(=O)c3c(O)cc(O)cc3o2)cc1-c1c(O)cc(O)c2c(=O)cc(-c3ccc(O)cc3)oc12 [BILOBETIN]
- Activity [1]: Active
- Activity [2]: Active
- Activity [3]: 51.2%
- Activity [4]: Active
- viability at 20 µM [5]: 52.6%
- inhibition [6]: Active
- inhibition [7]: Active
- Activity [8]: 4.88%
- Activity [9]: inactive
- inhibition [10]: Active
- Activity [11]: inactive
- viability at 10 µM [12]: 67.9%
- Activity [13]: inactive
- Activity [14]: Active
- Activity [15]: 3.58%
- Activity [16]: 32.7%
- Activity [17]: 0.49%
- Activity [18]: Active
- Activity [19]: inactive
- Activity [20]: 39.9%
- Activity [21]: 28%
- Activity [22]: inactive
- Activity [23]: Active
- Activity [24]: 41%
- Activity [25]: Dose-Dependent Effect
- Activity [26]: Active
- Activity [27]: Active
- Activity [28]: 33.4%
- Activity [29]: Active
- Activity [30]: Active
- Activity [31]: 0.46%
- Activity [32]: 64.4%
- inhibition [33]: Active
- Activity [34]: 59.9%

Compound: COc1cc(O)c2c(=O)cc(-c3ccc(OC)c(-c4c(O)cc(O)c5c(=O)cc(-c6ccc(O)cc6)oc45)c3)oc2c1 [GINKGETIN]
- Activity [1]: Active
- Activity [2]: Active
- Activity [3]: 45.3%
- Activity [4]: Active
- viability at 20 µM [5]: 55.4%
- inhibition [6]: Active
- inhibition [7]: Active
- Activity [8]: 3.37%
- Activity [9]: inactive
- inhibition [10]: Active
- Activity [11]: inactive
- viability at 10 µM [12]: 67.6%
- Activity [13]: inactive
- Activity [14]: Active
- Activity [15]: 5.69%
- Activity [16]: 39.2%
- Activity [17]: 0.54%
- Activity [18]: Active
- Activity [19]: inactive
- Activity [20]: 33.6%
- Activity [21]: 25.8%
- Activity [22]: inactive
- Activity [23]: Active
- Activity [24]: 52.1%
- Activity [25]: Dose-Dependent Effect
- Activity [26]: Active
- Activity [27]: Active
- Activity [28]: 43.1%
- Activity [29]: Active
- Activity [30]: Active
- Activity [31]: 0.99%
- Activity [32]: 58.1%
- inhibition [33]: Active
- Activity [34]: 51.2%

Compound: COc1ccc(-c2cc(=O)c3c(O)cc(O)c(-c4cc(-c5cc(=O)c6c(O)cc(O)cc6o5)ccc4OC)c3o2)cc1 [ISOGINKGETIN]
- Activity [1]: Active
- Activity [2]: Active
- Activity [3]: 47.3%
- Activity [4]: Active
- viability at 20 µM [5]: 49.1%
- inhibition [6]: Active
- inhibition [7]: Active
- Activity [8]: 1.38%
- Activity [9]: inactive
- inhibition [10]: Active
- Activity [11]: inactive
- viability at 10 µM [12]: 70%
- Activity [13]: inactive
- Activity [14]: Active
- Activity [15]: 2.58%
- Activity [16]: 36.7%
- Activity [17]: 0.79%
- Activity [18]: Active
- Activity [19]: inactive
- Activity [20]: 40.6%
- Activity [21]: 26.5%
- Activity [22]: inactive
- Activity [23]: Active
- Activity [24]: 46.6%
- Activity [25]: Dose-Dependent Effect
- Activity [26]: Active
- Activity [27]: Active
- Activity [28]: 44.5%
- Activity [29]: Active
- Activity [30]: Active
- Activity [31]: 0.92%
- Activity [32]: 58.4%
- inhibition [33]: Active
- Activity [34]: 52.6%
